Legend:
Format in all cases: binding
[1] = biological target: T1, kinases (KINOMEscan panel) (Homo sapiens, UniProt O15197); conditions: kinase EPHB6; NEW KINOMEscan
T1 sequence (O15197 32-1021): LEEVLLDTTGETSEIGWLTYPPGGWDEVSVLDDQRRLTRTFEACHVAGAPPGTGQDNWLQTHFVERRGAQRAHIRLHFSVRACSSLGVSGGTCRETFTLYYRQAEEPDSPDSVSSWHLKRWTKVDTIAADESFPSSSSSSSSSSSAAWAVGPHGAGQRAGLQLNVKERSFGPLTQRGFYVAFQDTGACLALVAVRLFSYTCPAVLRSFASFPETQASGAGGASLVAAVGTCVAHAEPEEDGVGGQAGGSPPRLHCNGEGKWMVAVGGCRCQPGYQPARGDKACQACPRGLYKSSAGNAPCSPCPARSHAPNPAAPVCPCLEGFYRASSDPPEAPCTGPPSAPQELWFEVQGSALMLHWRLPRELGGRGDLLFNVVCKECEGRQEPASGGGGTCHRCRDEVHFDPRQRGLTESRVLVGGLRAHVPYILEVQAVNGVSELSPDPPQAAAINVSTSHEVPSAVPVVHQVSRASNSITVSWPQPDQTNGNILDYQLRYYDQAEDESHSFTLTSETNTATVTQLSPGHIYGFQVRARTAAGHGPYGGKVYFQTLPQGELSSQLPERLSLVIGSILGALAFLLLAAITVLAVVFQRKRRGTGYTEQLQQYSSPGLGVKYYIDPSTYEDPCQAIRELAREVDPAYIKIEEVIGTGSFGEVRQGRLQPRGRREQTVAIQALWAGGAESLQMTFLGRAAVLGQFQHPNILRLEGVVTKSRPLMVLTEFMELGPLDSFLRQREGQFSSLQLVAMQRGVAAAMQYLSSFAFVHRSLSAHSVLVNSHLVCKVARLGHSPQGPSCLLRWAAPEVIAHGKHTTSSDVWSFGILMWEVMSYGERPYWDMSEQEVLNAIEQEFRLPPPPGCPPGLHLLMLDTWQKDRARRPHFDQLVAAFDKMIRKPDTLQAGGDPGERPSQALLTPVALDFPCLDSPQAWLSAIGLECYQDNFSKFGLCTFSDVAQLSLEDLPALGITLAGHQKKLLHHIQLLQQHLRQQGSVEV

[2] = biological target: kinases (KINOMEscan panel) (Homo sapiens, UniProt Q16816); conditions: PHKG1; NEW KINOMEscan
[3] = biological target: kinases (KINOMEscan panel) (Homo sapiens, UniProt P29317); conditions: EPHA2; NEW KINOMEscan
[4] = biological target: kinases (KINOMEscan panel) (Homo sapiens, UniProt P08581, Y1235D); conditions: kinase MET(Y1235D); NEW KINOMEscan
Chain of kinases (KINOMEscan panel) (Homo sapiens, UniProt P08581, Y1235D) (P08581 25-1390 Y1235D): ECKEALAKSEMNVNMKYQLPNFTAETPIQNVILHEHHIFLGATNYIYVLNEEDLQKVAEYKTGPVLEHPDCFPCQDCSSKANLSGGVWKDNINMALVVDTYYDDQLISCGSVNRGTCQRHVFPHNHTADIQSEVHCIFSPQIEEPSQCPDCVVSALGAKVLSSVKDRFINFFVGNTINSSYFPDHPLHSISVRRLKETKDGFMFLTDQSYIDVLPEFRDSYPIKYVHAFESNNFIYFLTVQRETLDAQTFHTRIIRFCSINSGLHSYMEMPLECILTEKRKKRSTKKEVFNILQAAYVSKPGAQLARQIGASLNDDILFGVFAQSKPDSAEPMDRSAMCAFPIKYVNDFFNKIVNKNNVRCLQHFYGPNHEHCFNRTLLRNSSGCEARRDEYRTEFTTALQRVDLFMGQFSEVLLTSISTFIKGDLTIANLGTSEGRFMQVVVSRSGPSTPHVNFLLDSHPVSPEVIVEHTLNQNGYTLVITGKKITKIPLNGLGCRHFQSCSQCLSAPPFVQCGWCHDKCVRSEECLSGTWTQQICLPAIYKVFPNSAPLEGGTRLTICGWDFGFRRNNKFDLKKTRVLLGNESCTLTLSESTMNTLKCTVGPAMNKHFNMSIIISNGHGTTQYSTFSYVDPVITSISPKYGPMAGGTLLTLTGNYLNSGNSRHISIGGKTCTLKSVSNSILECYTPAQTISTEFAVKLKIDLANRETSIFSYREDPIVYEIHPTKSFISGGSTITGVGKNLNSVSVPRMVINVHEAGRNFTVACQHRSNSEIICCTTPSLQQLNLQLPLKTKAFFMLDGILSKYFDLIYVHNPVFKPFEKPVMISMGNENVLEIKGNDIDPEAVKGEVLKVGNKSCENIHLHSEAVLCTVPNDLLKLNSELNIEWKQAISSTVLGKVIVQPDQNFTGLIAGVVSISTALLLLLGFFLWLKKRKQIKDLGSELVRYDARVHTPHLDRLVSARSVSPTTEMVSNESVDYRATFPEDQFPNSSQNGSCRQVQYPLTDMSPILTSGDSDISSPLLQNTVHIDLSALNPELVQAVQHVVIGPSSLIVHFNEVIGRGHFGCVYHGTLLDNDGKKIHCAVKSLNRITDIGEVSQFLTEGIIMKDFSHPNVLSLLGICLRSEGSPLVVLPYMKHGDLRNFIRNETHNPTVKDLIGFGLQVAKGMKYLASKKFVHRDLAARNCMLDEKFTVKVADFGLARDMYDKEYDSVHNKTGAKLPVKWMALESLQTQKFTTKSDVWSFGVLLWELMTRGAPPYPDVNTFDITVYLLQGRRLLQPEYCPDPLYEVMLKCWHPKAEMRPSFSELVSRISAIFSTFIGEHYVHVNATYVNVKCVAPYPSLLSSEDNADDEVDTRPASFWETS

[5] = biological target: T2, kinases (KINOMEscan panel) (Homo sapiens, UniProt Q15835); conditions: NEW KINOMEscan
T2 sequence (Q15835 1-563): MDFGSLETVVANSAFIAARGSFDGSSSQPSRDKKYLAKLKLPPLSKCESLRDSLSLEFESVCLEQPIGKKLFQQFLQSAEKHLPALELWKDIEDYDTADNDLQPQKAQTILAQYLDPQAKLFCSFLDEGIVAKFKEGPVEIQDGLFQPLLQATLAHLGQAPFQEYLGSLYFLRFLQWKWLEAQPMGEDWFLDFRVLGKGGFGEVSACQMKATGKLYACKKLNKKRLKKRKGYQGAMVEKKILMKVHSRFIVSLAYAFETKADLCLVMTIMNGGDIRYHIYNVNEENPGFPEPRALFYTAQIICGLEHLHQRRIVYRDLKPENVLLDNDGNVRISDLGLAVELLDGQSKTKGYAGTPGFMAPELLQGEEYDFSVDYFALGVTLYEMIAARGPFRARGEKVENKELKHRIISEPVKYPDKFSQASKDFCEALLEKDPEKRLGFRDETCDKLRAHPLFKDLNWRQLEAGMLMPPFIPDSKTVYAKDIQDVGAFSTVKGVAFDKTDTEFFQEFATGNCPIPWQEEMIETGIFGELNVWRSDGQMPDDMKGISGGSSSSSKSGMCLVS

[6] = biological target: kinases (KINOMEscan panel) (Homo sapiens, UniProt O00750); conditions: PIK3C2B; NEW KINOMEscan
Chain of kinases (KINOMEscan panel) (Homo sapiens, UniProt O00750) (O00750 whole entry): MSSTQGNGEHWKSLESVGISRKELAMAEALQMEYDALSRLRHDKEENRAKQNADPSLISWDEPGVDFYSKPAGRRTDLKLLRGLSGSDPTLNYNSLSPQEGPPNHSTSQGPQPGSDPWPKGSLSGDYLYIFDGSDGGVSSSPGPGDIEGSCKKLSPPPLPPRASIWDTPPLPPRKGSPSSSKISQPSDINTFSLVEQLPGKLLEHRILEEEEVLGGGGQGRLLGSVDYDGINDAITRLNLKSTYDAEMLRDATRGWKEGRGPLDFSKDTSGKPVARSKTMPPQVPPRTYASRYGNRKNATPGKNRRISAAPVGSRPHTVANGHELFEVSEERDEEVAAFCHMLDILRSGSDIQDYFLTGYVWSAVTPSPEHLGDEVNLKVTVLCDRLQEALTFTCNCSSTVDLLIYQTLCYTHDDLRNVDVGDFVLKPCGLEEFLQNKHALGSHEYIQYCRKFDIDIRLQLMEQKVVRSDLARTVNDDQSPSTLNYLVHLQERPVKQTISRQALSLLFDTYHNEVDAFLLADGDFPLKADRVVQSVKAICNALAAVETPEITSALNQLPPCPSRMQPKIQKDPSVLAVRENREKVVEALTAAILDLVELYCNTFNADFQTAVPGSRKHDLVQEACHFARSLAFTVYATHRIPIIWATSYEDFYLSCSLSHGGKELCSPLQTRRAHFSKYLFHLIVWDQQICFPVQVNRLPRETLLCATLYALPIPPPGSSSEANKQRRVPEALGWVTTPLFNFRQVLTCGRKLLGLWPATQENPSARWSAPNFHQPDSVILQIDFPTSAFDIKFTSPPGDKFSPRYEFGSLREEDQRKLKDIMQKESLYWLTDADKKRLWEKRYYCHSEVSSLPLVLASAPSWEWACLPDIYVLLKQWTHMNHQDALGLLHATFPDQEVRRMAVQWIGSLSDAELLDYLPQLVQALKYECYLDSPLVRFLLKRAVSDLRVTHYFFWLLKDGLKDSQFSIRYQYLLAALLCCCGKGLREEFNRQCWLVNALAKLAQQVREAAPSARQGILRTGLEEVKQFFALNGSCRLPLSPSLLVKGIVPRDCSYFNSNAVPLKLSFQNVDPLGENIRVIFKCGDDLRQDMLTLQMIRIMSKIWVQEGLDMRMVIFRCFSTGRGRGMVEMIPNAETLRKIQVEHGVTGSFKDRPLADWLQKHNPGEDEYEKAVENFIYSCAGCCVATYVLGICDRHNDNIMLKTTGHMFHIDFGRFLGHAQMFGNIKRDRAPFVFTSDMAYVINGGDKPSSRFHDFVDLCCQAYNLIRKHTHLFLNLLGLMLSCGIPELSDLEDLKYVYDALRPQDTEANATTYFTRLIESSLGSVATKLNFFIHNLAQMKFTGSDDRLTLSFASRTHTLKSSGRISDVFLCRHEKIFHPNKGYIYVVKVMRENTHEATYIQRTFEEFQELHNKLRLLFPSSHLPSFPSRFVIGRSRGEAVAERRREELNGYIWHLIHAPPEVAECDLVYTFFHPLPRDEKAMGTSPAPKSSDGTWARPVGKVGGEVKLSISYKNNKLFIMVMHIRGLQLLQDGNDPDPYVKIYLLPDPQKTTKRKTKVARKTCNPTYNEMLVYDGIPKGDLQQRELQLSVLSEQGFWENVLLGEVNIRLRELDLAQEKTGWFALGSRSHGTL

[7] = biological target: T3, kinases (KINOMEscan panel) (Homo sapiens, UniProt P41743); conditions: PRKCI; NEW KINOMEscan
T3 sequence (P41743 1-596): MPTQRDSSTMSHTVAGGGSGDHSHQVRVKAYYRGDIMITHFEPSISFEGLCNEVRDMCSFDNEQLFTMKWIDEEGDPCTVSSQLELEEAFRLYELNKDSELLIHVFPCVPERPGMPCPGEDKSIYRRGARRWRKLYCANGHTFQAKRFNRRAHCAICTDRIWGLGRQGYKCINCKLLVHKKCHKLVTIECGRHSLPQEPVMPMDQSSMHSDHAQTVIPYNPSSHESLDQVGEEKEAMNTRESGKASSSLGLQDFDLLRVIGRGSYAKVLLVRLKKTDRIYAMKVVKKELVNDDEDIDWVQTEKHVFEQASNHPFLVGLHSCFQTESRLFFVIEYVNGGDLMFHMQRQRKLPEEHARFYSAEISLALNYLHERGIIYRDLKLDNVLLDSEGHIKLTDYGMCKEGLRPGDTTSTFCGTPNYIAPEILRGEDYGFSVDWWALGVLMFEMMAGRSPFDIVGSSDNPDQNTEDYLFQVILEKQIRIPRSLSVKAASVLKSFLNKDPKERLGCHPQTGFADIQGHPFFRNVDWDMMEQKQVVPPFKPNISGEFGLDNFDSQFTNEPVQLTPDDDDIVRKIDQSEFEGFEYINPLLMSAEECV

[8] = biological target: kinases (KINOMEscan panel) (Homo sapiens, UniProt P48736); conditions: kinase PIK3CG; NEW KINOMEscan
Chain of kinases (KINOMEscan panel) (Homo sapiens, UniProt P48736) (P48736 whole entry): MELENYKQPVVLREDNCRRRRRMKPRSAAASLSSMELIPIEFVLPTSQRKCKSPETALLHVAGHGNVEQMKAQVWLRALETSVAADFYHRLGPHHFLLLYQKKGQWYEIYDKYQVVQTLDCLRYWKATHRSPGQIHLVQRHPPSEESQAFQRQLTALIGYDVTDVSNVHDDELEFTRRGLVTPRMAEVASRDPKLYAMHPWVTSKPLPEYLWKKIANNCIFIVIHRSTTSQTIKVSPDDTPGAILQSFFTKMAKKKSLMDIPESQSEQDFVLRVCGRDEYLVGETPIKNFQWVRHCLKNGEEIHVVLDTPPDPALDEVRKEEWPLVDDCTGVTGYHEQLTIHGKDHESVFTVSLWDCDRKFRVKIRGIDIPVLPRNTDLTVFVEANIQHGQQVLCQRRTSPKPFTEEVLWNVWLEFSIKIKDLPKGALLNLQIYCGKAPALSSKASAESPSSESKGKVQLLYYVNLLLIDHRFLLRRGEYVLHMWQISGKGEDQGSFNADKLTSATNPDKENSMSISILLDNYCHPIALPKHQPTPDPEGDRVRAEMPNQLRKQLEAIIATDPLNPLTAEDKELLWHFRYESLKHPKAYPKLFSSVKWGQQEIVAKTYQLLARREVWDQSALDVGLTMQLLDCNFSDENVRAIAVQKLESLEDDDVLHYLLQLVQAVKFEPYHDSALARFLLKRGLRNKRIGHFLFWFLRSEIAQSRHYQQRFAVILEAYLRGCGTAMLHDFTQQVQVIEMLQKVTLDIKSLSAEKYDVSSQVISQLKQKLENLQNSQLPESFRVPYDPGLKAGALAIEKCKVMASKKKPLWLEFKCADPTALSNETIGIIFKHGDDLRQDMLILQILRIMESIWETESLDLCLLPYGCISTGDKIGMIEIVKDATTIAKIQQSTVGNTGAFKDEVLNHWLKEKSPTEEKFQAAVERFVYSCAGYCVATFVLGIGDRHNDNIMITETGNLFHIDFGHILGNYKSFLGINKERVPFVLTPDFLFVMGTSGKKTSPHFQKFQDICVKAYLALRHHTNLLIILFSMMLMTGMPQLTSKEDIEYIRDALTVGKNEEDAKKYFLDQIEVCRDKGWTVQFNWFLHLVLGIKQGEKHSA

[9] = biological target: kinases (KINOMEscan panel) (Homo sapiens, UniProt Q16539)
Chain of kinases (KINOMEscan panel) (Homo sapiens, UniProt Q16539) (Q16539 whole entry): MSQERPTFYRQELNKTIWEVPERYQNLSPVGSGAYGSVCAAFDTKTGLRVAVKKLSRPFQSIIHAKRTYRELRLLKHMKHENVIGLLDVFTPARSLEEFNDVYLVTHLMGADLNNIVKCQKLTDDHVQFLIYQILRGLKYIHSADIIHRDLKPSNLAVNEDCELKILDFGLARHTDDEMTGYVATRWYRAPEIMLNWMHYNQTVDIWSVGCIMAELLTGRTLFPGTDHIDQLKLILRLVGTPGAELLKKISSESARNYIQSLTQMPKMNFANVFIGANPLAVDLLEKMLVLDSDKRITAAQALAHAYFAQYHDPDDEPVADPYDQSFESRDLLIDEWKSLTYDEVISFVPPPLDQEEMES

[10] = biological target: kinases (KINOMEscan panel) (Homo sapiens, UniProt Q52WX2); conditions: SBK1; NEW KINOMEscan
Chain of kinases (KINOMEscan panel) (Homo sapiens, UniProt Q52WX2) (Q52WX2 whole entry): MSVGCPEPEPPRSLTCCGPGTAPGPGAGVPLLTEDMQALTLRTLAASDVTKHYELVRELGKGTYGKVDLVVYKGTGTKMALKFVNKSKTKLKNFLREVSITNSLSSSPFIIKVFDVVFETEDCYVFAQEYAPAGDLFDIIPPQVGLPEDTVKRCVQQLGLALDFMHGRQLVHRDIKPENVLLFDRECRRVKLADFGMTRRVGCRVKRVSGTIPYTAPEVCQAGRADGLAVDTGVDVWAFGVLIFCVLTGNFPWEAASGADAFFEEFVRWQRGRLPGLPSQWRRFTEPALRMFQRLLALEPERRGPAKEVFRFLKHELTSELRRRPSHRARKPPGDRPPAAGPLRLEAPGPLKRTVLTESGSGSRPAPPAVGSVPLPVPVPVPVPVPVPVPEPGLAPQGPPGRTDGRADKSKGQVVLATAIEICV

Row | SMILES | KINOMEscan EPHB6 [1] | KINOMEscan PHKG1 [2] | KINOMEscan EPHA2 [3] | KINOMEscan MET(Y1235D) [4] | KINOMEscan GRK1 [5] | KINOMEscan PIK3C2B [6] | KINOMEscan PRKCI [7] | KINOMEscan PIK3CG [8] | KINOMEscan MAPK14/p38-alpha [9] | KINOMEscan SBK1 [10]
1 | Cc1cccc(-c2nc(N(C)c3ccc4ncsc4c3)c3ccccc3n2)n1 [NK-161] | 0 | 5 | 2 | 1 | 25 | 0 | 0 | 8 | 8 | 0
2 | Cc1cccc(-c2nc(Nc3ccc4nn(C)cc4c3)c3ccccc3n2)n1 [NK167] | 0 | 5 | 0 | 7 | 37 | 0 | 0 | 0 | 5 | 0

Reference: paper PMC9851200, “Multiparameter phenotypic screening for endogenous TFEB and TFE3 translocation identifies novel chemical series modulating lysosome function” (Autophagy, 2022)
